Reference: patent US9539248B2, “Agent for ameliorating chronic obstructive pulmonary disease” (LTT BIO-PHARMA CO., LTD., priority 2012, dated 2017)

How the values were obtained:
[1] = tested on: porcine pancreatic elastase pretreatment-induced pulmonary emphysema and altered lung function; experiment: Test Example 2: porcine pancreatic elastase pretreatment-induced pulmonary emphysema and altered lung function; format: in vivo, ICR mice
Procedure: 100 μg of porcine pancreatic elastase per mouse and different doses of mepenzolate were dissolved in 30 μL of phosphate buffered saline (PBS) per mouse and this solution was injected into the airway of a mouse anesthetized with chloral hydrate by a micropipette.
(§1) Lung function and airway resistance were measured by using a computer-controlled small animal ventilator (FlexiVent, SCIREQ Scientific Respiratory Equipment Inc.).
A mouse was anesthetized with chloral hydrate, a tracheostomy was performed, and an 8 mm metal tube was inserted into the trachea. Ventilation was performed on the mouse with a volume of 8.7 mL/kg, a positive end-expiratory pressure of 2 to 3 cmH2O, and a respiratory rate of 150 times/min.
Total respiratory system elastance was measured by a snap shot technique and tissue elastance was measured by a forced oscillation technique.
After 4 to 6 week old ICR mice were used and treated with porcine pancreatic elastase by a similar method to that in Test Example 1, different doses (μg/kg) of mepenzolate were administered to these mice via the airway once daily from 14 days to 20 days after the treatment. Then, the mice were euthanized, sections of the lung tissues were prepared and dyed with H&E, and stained images were obtained by electron microscopy.
Subsequently, the airspace size in the cells in the obtained H&E stained images was measured as a mean linear intercept.
Then, on Day 21, the total respiratory system elastance and the tissue elastance were measured by a similar method to that in Test Example 1.

[2] = tested on: methacholine-induced airway constriction; experiment: Test Example 4: methacholine-induced airway constriction, airway administration; format: in vivo, ICR mice
Procedure: as §1
(§2) Increase in airway resistance induced by methacoline was measured. 4 to 6 week old ICR mice received 1 mg/mL methacoline by nebulization over 20 seconds and this was repeated five times. After administration of methacoline was completed, the airway resistance was measured by a snap shot technique. All the data were analyzed by using FlexiVent software.
Different doses (μg/kg) of mepenzolate were administered to the mice via the airway, and one hour after administration, the mice received five exposures to nebulized methacoline, and then, the airway resistance for each dose was measured.
Furthermore, mepenzolate was administered to the mice at a dose of 38 μg/kg. Then, the mice received five exposures to nebulized methacoline at 6 hours, 24 hours, and 48 hours after drug administration. The airway resistance for each time length was measured.

[3] = tested on: pulmonary emphysema and altered lung function resulting from smoking; experiment: Test Example 6: pulmonary emphysema and altered lung function resulting from smoking; format: in vivo, DBA/2 mice; details: cigarette smoke 6 weeks
Procedure: Three-times-a-day exposure to smoking and once-a-day coadministration of 38 μg/kg of mepenzolate were performed on 5 week old DBA/2 mice, 5 days a week (Monday to Friday) for 6 weeks. The mice were subjected to only smoking during the final week. The mice were subjected to smoking by the method described below. 15 to 20 mice were placed in a 45 L chamber and the chamber was connected to a cigarette smoke generator. Commercially available unfiltered cigarette that produced 28 mg of tar and 2.3 mg of nicotine were used. The mice were exposed to smoke of one cigarette over 35 minutes, which was repeated three times a day for five days a week. This was continued for 6 weeks. The mice were made to inhale the cigarette smoke 15 times over a 5-minute period. Mepenzolate was administered to the mice by inhalation. After smoking was completed, the mice were euthanized, sections of the lung tissues were prepared and dyed with H&E, and stained images were obtained by electron microscopy. The airspace size in the cells in the H&E stained images obtained above was measured as a mean linear intercept. Then, the total respiratory system elastance and the tissue elastance were measured by a similar method to that in Test Example 1.

[4] = tested on: porcine pancreatic elastase-induced inflammation; experiment: Test Example 5: porcine pancreatic elastase-induced inflammation (BALF cell counts and cytokines); format: in vivo, ICR mice
Procedure: Different doses of mepenzolate were administered to 4 to 6 week old ICR mice once via the airway. 100 μg of porcine pancreatic elastase per mouse was administered one hour after administration of mepenzolate. Bronchoalveolar lavage fluid (BALF) was collected from the lung 24 hours after administration of porcine pancreatic elastase and a total cell count and a neutrophil count were measured. Furthermore, the total number of TNF-α, MIP-2, MCP-1, or KC in the bronchoalveolar lavage fluid when 38 μg/kg of mepenzolate was administered via the airway was measured by an ELISA method.

[5] = tested on: porcine pancreatic elastase-induced COPD model; experiment: Test Example 8: rectal administration in porcine pancreatic elastase-induced COPD model, inflammatory cells in alveolar lavage fluid; format: in vivo, ICR mice; details: intrarectal once daily, lavage fluid collected 3 days later (FIG. 21)
Procedure: 100 μg of porcine pancreatic elastase per mouse was administered to 4 to 6 week old ICR mice once via the airway to induce damage in the lung. Different concentrations of mepenzolate were administered intrarectally once daily. The alveolar lavage fluid was collected 3 days later and the total cell count was counted. The neutrophil count was also counted by dyeing the cells by a Diff-Quick technique.

[6] = tested on: porcine pancreatic elastase-induced COPD model; experiment: Test Example 8: rectal administration in porcine pancreatic elastase-induced COPD model, lung damage (H&E, MLI, elastance, FEV0.05/FVC); format: in vivo, ICR mice; details: intrarectal once daily for 14 days, different doses (mg/kg) (FIG. 22 to 24)
Procedure: (§3) 100 μg of porcine pancreatic elastase per mouse was administered to 4 to 6 week old ICR mice once via the airway to induce damage in the lung. Furthermore, different doses (mg/kg) of mepenzolate were administered to the mice intrarectally once daily for 14 days. After administration, sections of the lung tissues were excised. Subsequently, the sections were subjected to H&E dyeing, MLI measurement, and elastance measurement performed by a similar method to that in Test Example 1.

[7] = tested on: poor lung function induced by porcine pancreatic elastase; experiment: Test Example 3: FEV0.05/FVC in poor lung function induced by porcine pancreatic elastase, compared with muscarinic antagonists; format: in vivo, ICR mice; details: 38 μg/kg by airway administration once daily for 11 days, measured on Day 14 (FIG. 10)
Procedure: Measurement of a ratio of forced expiratory volume (FEV) in the first 0.05 seconds to forced vital capacity (FVC) (FEV0.05/FVC) was performed by using the above-mentioned computer-controlled small animal ventilator connected to a negative pressure reservoir (SCIREQ Scientific Respiratory Equipment Inc.). FEV0.05/PVC was determined by using the FlexiVent software. As with Test Example 1, 4 to 6 week old ICR mice were treated with porcine pancreatic elastase. […] On Day 14, FEV0.05/FVC was measured by the method described in the above-mentioned “Measurement of FEV0.05/FVC.”

[8] = tested on: porcine pancreatic elastase-induced pulmonary emphysema and altered lung function; experiment: Test Example 1: porcine pancreatic elastase-induced pulmonary emphysema and altered lung function, mepenzolate via the airway or by inhalation; format: in vivo, ICR mice; details: for damage in the alveolar wall: H&E sections; for mean linear intercept (MLI): PPE 100 μg per mouse
Procedure: 100 μg of porcine pancreatic elastase per mouse and different doses of mepenzolate were dissolved in 30 μL of phosphate buffered saline (PBS) per mouse and this solution was injected into the airway of a mouse anesthetized with chloral hydrate by a micropipette. A mouse was placed in a chamber. Then, the whole amount of a mepenzolate solution prepared by dissolving mepenzolate in 10 mL of PBS was sprayed onto the mouse over 30 minutes by using an ultrasonic nebulizer (NE-U07, manufactured by OMRON Corporation) that was connected to the chamber. Lung function and airway resistance were measured by using a computer-controlled small animal ventilator (FlexiVent, SCIREQ Scientific Respiratory Equipment Inc.). A mouse was anesthetized with chloral hydrate, a tracheostomy was performed, and an 8 mm metal tube was inserted into the trachea. Ventilation was performed on the mouse with a volume of 8.7 mL/kg, a positive end-expiratory pressure of 2 to 3 cmH2O, and a respiratory rate of 150 times/min. Total respiratory system elastance was measured by a snap shot technique and tissue elastance was measured by a forced oscillation technique. Data analysis was conducted by using FlexiVent software. A lung damage model for pulmonary emphysema and altered lung function was generated by administering 100 μg of porcine pancreatic elastase per mouse to 4 to 6 week old ICR mice once via the airway. Different doses of mepenzolate were administered to these mice via the airway (μg/kg) or by inhalation (μg/chamber) once daily for 14 days (Day 0 to Day 13) and the mice were euthanized on Day 14. Sections of the lung tissues were prepared and dyed with H&E (hematoxylin-eosin staining), and stained images were obtained by electron microscopy. The airspace size in the cells in the H&E stained images obtained above was measured as a mean linear intercept (MLI; μm). Then, on Day 14, the total respiratory system elastance and the tissue elastance were measured by the method described in the above-mentioned “Measurement of Elastance.”

[9] = tested on: methacoline-induced airway constriction; experiment: Test Example 9: rectal administration in methacoline-induced airway constriction; format: in vivo, mice; details: different doses (mg/kg) (FIG. 25)
Procedure: as §2, with “software. Different doses (mg/kg) of mepenzolate were administered intrarectally and airway resistance induced by methacoline was measured by a similar method to that in Test Example 4.” for “software.”

[10] = tested on: porcine pancreatic elastase-induced pulmonary emphysema and altered lung function; experiment: Test Example 7: oral administration in porcine pancreatic elastase-induced pulmonary emphysema and altered lung function; format: in vivo, ICR mice; details: oral administration once daily for 14 days, different doses (mg/kg) (FIG. 18 to 20)
Procedure: as §3, with “airway. Then,” for “airway to induce damage in the lung. Furthermore,”, “orally” for “intrarectally”

[11] = airway administration, Day 21 (FIG. 9)
[12] = 38 μg/kg once a day by inhalation (FIG. 17)
[13] = 38 μg/kg via the airway, ELISA (FIG. 14)
[14] = different doses once via the airway 1 h before PPE, BALF 24 hours after PPE (FIG. 13)
[15] = airway administration, Day 14 (FIG. 3)
[16] = inhalation administration, Day 14 (FIG. 6)

SMILES: C[N+]1(C)CCC[C@@H](OC(=O)C(O)(c2ccccc2)c2ccccc2)C1 (racemic) [mepenzolate, mepenzolate bromide]
- damage in the alveolar wall ([1]; airway administration once daily from 14 to 20 days after PPE treatment): improved dose-dependently
- mean linear intercept ([1]; airway administration once daily from 14 to 20 days after PPE treatment (FIG. 7, 8)): suppressed
- tissue elastance [1, 11]: significantly improved
- total respiratory system elastance [1, 11]: significantly improved
- airway resistance induced by methacoline, duration of effect ([2]; 38 μg/kg, methacoline at 6, 24 and 48 hours after administration (FIG. 12)): reduced the airway resistance even 24 hours after administration
- airway resistance induced by methacoline ([2]; airway administration at 0.04, 0.08, 0.38, 3.8 and 38.0 μg/kg, one hour after administration (FIG. 11)): reduced the airway resistance almost dose-dependently
- damage in the alveolar wall ([3]; 38 μg/kg once a day by inhalation): improved
- mean linear intercept ([3]; 38 μg/kg once a day by inhalation (FIG. 15, 16)): suppressed
- tissue elastance [3, 12]: significantly improved
- total respiratory system elastance [3, 12]: significantly improved
- KC in the BALF [4, 13]: decreased
- MCP-1 in the BALF [4, 13]: decreased
- MIP-2 in the BALF [4, 13]: decreased
- TNF-α in the BALF [4, 13]: decreased
- neutrophil count of the BALF [4, 14]: decreased dependently on the dose
- total cell count of the BALF [4, 14]: decreased dependently on the dose
- inflammatory cells (total cell count, neutrophil count) in alveolar lavage fluid [5]: decrease in the inflammatory cells was observed
- damage in the lung induced by elastase (H&E, MLI, elastance, FEV0.05/FVC) [6]: improved damage in the lung induced by elastase
- recovering effect of vital capacity represented by FEV0.05/FVC reduced by PPE administration [7]: effectively exhibited a recovering effect
- damage in the alveolar wall ([8]; airway administration once daily for 14 days): improved
- mean linear intercept (MLI) ([8]; airway administration once daily for 14 days, Day 14 (FIG. 1, 2)): suppressed
- tissue elastance [8, 15]: significantly improved
- total respiratory system elastance [8, 15]: significantly improved
- damage in the alveolar wall ([8]; inhalation administration once daily for 14 days): improved
- mean linear intercept (MLI) ([8]; inhalation administration once daily for 14 days, Day 14 (FIG. 4, 5)): suppressed
- tissue elastance [8, 16]: significantly improved
- total respiratory system elastance [8, 16]: significantly improved
- suppressive effect on mean linear intercept, inhalation compared with airway administration ([8]; inhalation vs airway administration): inhalation administration had a slightly better suppressive effect
- airway resistance induced by methacoline [9]: showed an excellent effect
- damage in the lung (H&E, MLI, elastance) [10]: improved damage in the lung

SMILES: CN1CCN(CC(=O)N2c3ccccc3C(=O)Nc3cccnc32)CC1 [pirenzepine]
- recovering effect of vital capacity represented by FEV0.05/FVC reduced by PPE administration [7]: did not show a significant recovering effect
